“Also recorded” adds a separate entry of the source.
What was measured:
VERO-E6 cells = test: MTT cytotoxicity assay (CC50); type: cell-based; settings: 24 h, in words
Method: To assess the half maximal cytotoxic concentration (CC50), stock solutions of the test compounds were prepared in 10% DMSO in ddH2O and diluted further to the working solutions with DMEM. The cytotoxic activity of the extracts was tested in VERO-E6 cells by using the 3-(4,5-dimethylthiazol-2-yl)-2,5-diphenyltetrazolium bromide (MTT) method with minor modifications. Briefly, the cells were seeded in 96 well-plates (100 μl/well at a density of 3×10^5 cells/ml) and incubated for 24 h at 37° C. in 5% CO2. After 24 h, cells were treated with various concentrations of the tested compounds in triplicates. 24 h later, the supernatant was discarded, and cell monolayers were washed with sterile 1× phosphate buffer saline (PBS) 3 times and MTT solution (20 μl of 5 mg/ml stock solution) was add to each well and incubated at 37° C. for 4 h followed by medium aspiration. In each well, the formed formazan crystals were dissolved with 200 μl of acidified isopropanol (0.04 M HCl in absolute isopropanol=0.073 ml HCL in 50 ml isopropanol). Absorbance of formazan solutions was measured at λ max 540 nm with 620 nm as a reference wavelength using a multi-well plate reader. […]

[1] = test system: SARS-CoV-2 (hCoV-19/Egypt/NRC-03/2020); type: cell-based

Row | Substance | toxicity (VERO-E6 cells) | antiviral activity against SARS-CoV-2 [1] | inhibitory effect / viral inhibition [1]
1 | 4,4-bis[(dimethylamino)methoxy]-7,7′-dihexyl-10,10′-dimethyl-3,3′-bis(4-nitrophenyl)-8,8′-dioxo-4,4′-spirobi[5-oxa-2,7-diaza-3-azonia-4λ^6-cuprabicyclo[4.4.0]deca-1(6),2,9-triene]-9,9′-dicarbonitrile [Complex D1] | low toxicity | active antiviral activity; also recorded: significant antiviral activity | somewhat higher inhibitory effect compared to D2; also recorded: acceptable range of viral inhibition
2 | 7,7′-dihexyl-10,10′-dimethyl-8,8′-dioxo-3,3′-bis(p-tolyl)-4,4′-spirobi[5-oxa-2,7-diaza-3-azonia-4λ^4-cuprabicyclo[4.4.0]deca-1(6),2,9-triene]-9,9′-dicarbonitrile [Complex D2] | low toxicity | active antiviral activity; also recorded: significant antiviral activity | acceptable range of viral inhibition

Source: patent US11786537B2 (priority 2022, dated 2023)
